Measured values as given in ChEMBL document CHEMBL1135319, “New N-alkyl-1,2-dihydro-2-thioxo-3-pyridinecarbothioamides as antituberculous agents with improved pharmacokinetics” (Bioorg Med Chem Lett, 2002).
≈ marks a conversion by molar mass, not a printed value.

Columns and labels:
[1] = Mean residence time (Pharmacokinetic property) after i.v. administration in rats; type: ADME, organism-based; conditions: rat, in vivo, iv
Mycobacterium avium [2] = experiment: In vitro antibacterial activity of compound against Mycobacterium avium MAC ANI (wild type strain) isolated from infected patients.; type: functional
[3] = Volume of steady state distribution after i.v. administration in rats; type: ADME, organism-based; conditions: rat, in vivo, iv; read-out: Vss
[4] = Area under the curve (Concentration) was determined for the compound as AUC with limits 0-8 after i.v. administration in rats; type: ADME, organism-based; parameters: route intravenous; conditions: rat, in vivo, iv
[5] = Toxicity after intraperitoneal administration in rats and mice; conditions: rodentia, in vivo, ip
Mycobacterium avium [6] = experiment: In vitro antibacterial activity of compound against Mycobacterium avium MAC ATCC 15769; type: functional
[7] = Clearance rate after i.v. administration in rats; type: ADME, organism-based; conditions: rat, in vivo, iv
[8] = Elimination half life after i.v. administration of compound in rats; type: ADME, organism-based; conditions: rat, in vivo, iv
Mycobacterium avium [9] = experiment: In vitro antibacterial activity of compound against Mycobacterium avium MAC AN2 wild type strain) isolated from infected patients.; type: functional
[10] = system: Mycobacterium tuberculosis; experiment: In vitro antibacterial activity against Mycobacterium tuberculosis MT ATCC H37Rv strain; type: functional
Mycobacterium avium [11] = experiment: In vitro antibacterial activity of compound against Mycobacterium avium MAC ISS-486 (wild type strain) isolated from infected patients.; type: functional
[12] = system: Mycobacterium tuberculosis; experiment: In vitro antibacterial activity against Mycobacterium tuberculosis MT-1 (wild type strain) isolated from infected patients.; type: functional
[13] = system: Mycobacterium tuberculosis; experiment: In vitro antibacterial activity against Mycobacterium tuberculosis MT-2 (wild type strain) isolated from infected patients.; type: functional
Mycobacterium avium [14] = experiment: In vitro antibacterial activity of compound against Mycobacterium avium MAC AN3 (wild type strain) isolated from infected patients.; type: functional

Q: With OCC/N=C(\S)c1cccnc1S as the compound, how does the MRT [1] read?
A: 0.72 h

Q: What about the MIC (Mycobacterium avium [2]) of the same compound?
A: 4 µg/mL (≈ 18.7 µM)

Q: And the Vd [3]?
A: 4.17 L/kg

Q: What about the AUC [4] of the same compound?
A: 3730 ng·h/mL

Q: What about the LD50 [5] of the same compound?
A: > 2000 mg/kg

Q: And the MIC (Mycobacterium avium [6])?
A: 8 µg/mL (≈ 37.3 µM)

Q: And the clearance [7]?
A: 93.2 mL/min/kg

Q: And the half-life [8]?
A: 40.2 min

Q: What about the MIC (Mycobacterium avium [9]) of the same compound?
A: 8 µg/mL (≈ 37.3 µM)

Q: And the MIC [10]?
A: 2 µg/mL (≈ 9.33 µM)

Q: What about the MIC (Mycobacterium avium [11]) of the same compound?
A: 8 µg/mL (≈ 37.3 µM)

Q: And the MIC [12]?
A: 4 µg/mL (≈ 18.7 µM)

Q: And the MIC [13]?
A: 8 µg/mL (≈ 37.3 µM)

Q: What about the MIC (Mycobacterium avium [14]) of the same compound?
A: 4 µg/mL (≈ 18.7 µM)

Q: What does the source list for CN(C)CC/N=C(\S)c1cccnc1S.Cl?
A: MRT [1]: 2.83 h; MIC (Mycobacterium avium [2]): > 16 µg/mL; Vd [3]: 11.2 L/kg; AUC [4]: 6910 ng·h/mL; LD50 [5]: > 2000 mg/kg; MIC (Mycobacterium avium [6]): > 16 µg/mL; clearance [7]: 60.8 mL/min/kg; half-life [8]: 163 min; MIC (Mycobacterium avium [9]): > 16 µg/mL; MIC [10]: 8 µg/mL; MIC (Mycobacterium avium [11]): > 16 µg/mL; MIC [12]: 16 µg/mL; MIC [13]: > 16 µg/mL; MIC (Mycobacterium avium [14]): > 16 µg/mL

Q: With Cl.S/C(=N\CCN1CCCC1)c1cccnc1S as the compound, how does the MIC (Mycobacterium avium [2]) read?
A: > 16 µg/mL

Q: And the MIC (Mycobacterium avium [6])?
A: > 16 µg/mL

Q: What about the MIC (Mycobacterium avium [9]) of the same compound?
A: > 16 µg/mL

Q: What about the MIC [10] of the same compound?
A: 8 µg/mL

Q: What about the MIC (Mycobacterium avium [11]) of the same compound?
A: > 16 µg/mL

Q: What about the MIC [12] of the same compound?
A: 16 µg/mL

Q: And the MIC [13]?
A: > 16 µg/mL

Q: And the MIC (Mycobacterium avium [14])?
A: > 16 µg/mL

Q: Which MIC (Mycobacterium avium [2]) does the source give for CN1CCN(CCC/N=C(\S)c2cccnc2S)CC1.Cl here?
A: > 16 µg/mL

Q: And the MIC (Mycobacterium avium [6])?
A: > 16 µg/mL

Q: What about the MIC (Mycobacterium avium [9]) of the same compound?
A: > 16 µg/mL

Q: And the MIC [10]?
A: 8 µg/mL

Q: What about the MIC (Mycobacterium avium [11]) of the same compound?
A: > 16 µg/mL

Q: What about the MIC [12] of the same compound?
A: 16 µg/mL

Q: What about the MIC [13] of the same compound?
A: > 16 µg/mL

Q: And the MIC (Mycobacterium avium [14])?
A: > 16 µg/mL

Q: With Cl.S/C(=N\CCc1ccccn1)c1cccnc1S as the compound, how does the MRT [1] read?
A: 1.77 h

Q: What about the MIC (Mycobacterium avium [2]) of the same compound?
A: 8 µg/mL

Q: What about the Vd [3] of the same compound?
A: 14.5 L/kg

Q: What about the AUC [4] of the same compound?
A: 4700 ng·h/mL

Q: What about the LD50 [5] of the same compound?
A: > 2000 mg/kg

Q: What about the MIC (Mycobacterium avium [6]) of the same compound?
A: 4 µg/mL

Q: What about the clearance [7] of the same compound?
A: 144 mL/min/kg

Q: And the half-life [8]?
A: 133 min

Q: What about the MIC (Mycobacterium avium [9]) of the same compound?
A: 8 µg/mL

Q: What about the MIC [10] of the same compound?
A: 4 µg/mL

Q: And the MIC (Mycobacterium avium [11])?
A: 8 µg/mL

Q: And the MIC [12]?
A: 4 µg/mL

Q: What about the MIC [13] of the same compound?
A: 1 µg/mL

Q: And the MIC (Mycobacterium avium [14])?
A: 8 µg/mL

Q: Which MIC (Mycobacterium avium [2]) does the source give for Cl.S/C(=N\CCCN1CCOCC1)c1cccnc1S here?
A: > 16 µg/mL

Q: What about the MIC (Mycobacterium avium [6]) of the same compound?
A: > 16 µg/mL

Q: And the MIC (Mycobacterium avium [9])?
A: > 16 µg/mL

Q: And the MIC [10]?
A: 4 µg/mL

Q: What about the MIC (Mycobacterium avium [11]) of the same compound?
A: > 16 µg/mL

Q: What about the MIC [12] of the same compound?
A: 8 µg/mL

Q: What about the MIC [13] of the same compound?
A: 8 µg/mL

Q: What about the MIC (Mycobacterium avium [14]) of the same compound?
A: > 16 µg/mL

Q: For CC/N=C(\S)c1cccnc1S, which MIC (Mycobacterium avium [2]) is on record?
A: 4 µg/mL (≈ 20.2 µM)

Q: What about the Vd [3] of the same compound?
A: 0.93 L/kg

Q: And the AUC [4]?
A: 15800 ng·h/mL

Q: What about the MIC (Mycobacterium avium [6]) of the same compound?
A: 4 µg/mL (≈ 20.2 µM)

Q: And the clearance [7]?
A: 20 mL/min/kg

Q: And the MIC (Mycobacterium avium [9])?
A: 8 µg/mL (≈ 40.3 µM)

Q: And the MIC [10]?
A: 0.5 µg/mL (≈ 2.52 µM)

Q: And the MIC (Mycobacterium avium [11])?
A: 4 µg/mL (≈ 20.2 µM)

Q: What about the MIC [12] of the same compound?
A: 1 µg/mL (≈ 5.04 µM)

Q: And the MIC [13]?
A: 1 µg/mL (≈ 5.04 µM)

Q: What about the MIC (Mycobacterium avium [14]) of the same compound?
A: 8 µg/mL (≈ 40.3 µM)

Q: Which results are given for CCCCCCC/N=C(\S)c1cccnc1S?
A: MIC (Mycobacterium avium [2]): 4 µg/mL (≈ 14.9 µM); Vd [3]: 1.28 L/kg; AUC [4]: 8250 ng·h/mL; MIC (Mycobacterium avium [6]): 2 µg/mL (≈ 7.45 µM); clearance [7]: 50 mL/min/kg; MIC (Mycobacterium avium [9]): 4 µg/mL (≈ 14.9 µM); MIC [10]: 0.5 µg/mL (≈ 1.86 µM); MIC (Mycobacterium avium [11]): 4 µg/mL (≈ 14.9 µM); MIC [12]: 2 µg/mL (≈ 7.45 µM); MIC [13]: 2 µg/mL (≈ 7.45 µM); MIC (Mycobacterium avium [14]): 4 µg/mL (≈ 14.9 µM)

Q: Which results are given for CC[C@@H](CO)NCCN[C@@H](CC)CO [ETHAMBUTOL]?
A: MIC (Mycobacterium avium [2]): 1 µg/mL (≈ 4.89 µM); MIC (Mycobacterium avium [9]): 0.5 µg/mL (≈ 2.45 µM); MIC [10]: ≤ 2 µg/mL; MIC (Mycobacterium avium [11]): 2 µg/mL (≈ 9.79 µM); MIC [12]: ≤ 2 µg/mL; MIC [13]: ≤ 2 µg/mL; MIC (Mycobacterium avium [14]): 2 µg/mL (≈ 9.79 µM)
